According to patent US20110082157A1, “Piperidinylamino-Thieno [2,3-D] Pyrimidine Compounds” (priority 2004, published 2011):
Structures can show the parent of a compound that is named as a salt. Where two headings read alike, the source gives them in different places.

Tests used:
[1] = target: T1, 5HT2B (Homo sapiens, UniProt P41595); experiment: Functional activity IC50 (5HT2B antagonist); type: cell-based
[2] = Rat pK; details: in vivo; for bioavailability: read-out: Rat pK: % F
[3] = HLM T1/2; details: human, liver microsomes
[4] = target: D2S (Homo sapiens, UniProt P14416); experiment: D2S binding (Ki)
Chain of D2S (P14416 1-414 isoform P14416-2): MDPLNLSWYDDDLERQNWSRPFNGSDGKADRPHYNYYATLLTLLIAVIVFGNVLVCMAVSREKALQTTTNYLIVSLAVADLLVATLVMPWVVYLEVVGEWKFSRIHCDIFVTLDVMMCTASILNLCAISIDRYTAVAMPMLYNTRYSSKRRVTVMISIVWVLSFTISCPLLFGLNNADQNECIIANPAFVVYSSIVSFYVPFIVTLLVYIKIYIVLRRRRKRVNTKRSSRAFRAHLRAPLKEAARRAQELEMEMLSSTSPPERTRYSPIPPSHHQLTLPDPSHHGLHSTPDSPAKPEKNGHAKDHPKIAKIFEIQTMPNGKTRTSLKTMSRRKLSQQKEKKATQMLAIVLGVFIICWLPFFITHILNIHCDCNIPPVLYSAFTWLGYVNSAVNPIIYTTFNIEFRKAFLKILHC

[5] = test system: IP3; experiment: IC50 (IP3); type: cell-based
[6] = target: hERG (Homo sapiens, UniProt Q12809); experiment: hERG % inhibition at 1 uM
Chain of hERG (Q12809 whole entry): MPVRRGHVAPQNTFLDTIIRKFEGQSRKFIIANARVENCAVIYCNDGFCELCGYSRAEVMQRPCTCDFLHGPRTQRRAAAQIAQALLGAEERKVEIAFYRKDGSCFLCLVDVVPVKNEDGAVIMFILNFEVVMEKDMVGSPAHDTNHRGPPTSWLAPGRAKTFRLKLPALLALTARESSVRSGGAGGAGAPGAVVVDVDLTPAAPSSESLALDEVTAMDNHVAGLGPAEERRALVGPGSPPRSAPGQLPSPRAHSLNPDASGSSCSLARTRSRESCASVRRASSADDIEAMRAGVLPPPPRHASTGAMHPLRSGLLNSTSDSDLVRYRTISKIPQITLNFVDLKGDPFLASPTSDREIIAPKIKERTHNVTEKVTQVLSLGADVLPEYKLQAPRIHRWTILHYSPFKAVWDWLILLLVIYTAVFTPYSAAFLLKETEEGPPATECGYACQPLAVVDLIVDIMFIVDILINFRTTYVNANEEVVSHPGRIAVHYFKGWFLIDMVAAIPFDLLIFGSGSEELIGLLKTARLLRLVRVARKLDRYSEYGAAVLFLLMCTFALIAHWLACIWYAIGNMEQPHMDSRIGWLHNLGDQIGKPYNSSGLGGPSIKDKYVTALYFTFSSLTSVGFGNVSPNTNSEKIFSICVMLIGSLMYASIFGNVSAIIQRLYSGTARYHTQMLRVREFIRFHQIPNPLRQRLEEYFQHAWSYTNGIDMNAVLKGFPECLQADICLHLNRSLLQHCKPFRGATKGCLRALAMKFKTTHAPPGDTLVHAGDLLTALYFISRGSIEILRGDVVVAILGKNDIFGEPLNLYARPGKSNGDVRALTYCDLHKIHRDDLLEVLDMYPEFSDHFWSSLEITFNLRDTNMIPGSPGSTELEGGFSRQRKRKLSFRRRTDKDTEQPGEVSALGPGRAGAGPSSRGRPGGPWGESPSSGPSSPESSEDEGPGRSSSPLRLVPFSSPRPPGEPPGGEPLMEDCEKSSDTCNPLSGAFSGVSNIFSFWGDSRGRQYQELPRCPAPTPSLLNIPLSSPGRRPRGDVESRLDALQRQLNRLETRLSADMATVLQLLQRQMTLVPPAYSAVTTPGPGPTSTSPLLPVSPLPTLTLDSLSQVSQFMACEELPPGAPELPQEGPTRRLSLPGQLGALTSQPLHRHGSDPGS

[7] = target: T1, 5HT2B; experiment: 5HT2B binding (Ki of Biological Data Table)
[8] = po, read-out: Rat pK: T1/2 (po)

T1 sequence (P41595 whole entry, species assumed): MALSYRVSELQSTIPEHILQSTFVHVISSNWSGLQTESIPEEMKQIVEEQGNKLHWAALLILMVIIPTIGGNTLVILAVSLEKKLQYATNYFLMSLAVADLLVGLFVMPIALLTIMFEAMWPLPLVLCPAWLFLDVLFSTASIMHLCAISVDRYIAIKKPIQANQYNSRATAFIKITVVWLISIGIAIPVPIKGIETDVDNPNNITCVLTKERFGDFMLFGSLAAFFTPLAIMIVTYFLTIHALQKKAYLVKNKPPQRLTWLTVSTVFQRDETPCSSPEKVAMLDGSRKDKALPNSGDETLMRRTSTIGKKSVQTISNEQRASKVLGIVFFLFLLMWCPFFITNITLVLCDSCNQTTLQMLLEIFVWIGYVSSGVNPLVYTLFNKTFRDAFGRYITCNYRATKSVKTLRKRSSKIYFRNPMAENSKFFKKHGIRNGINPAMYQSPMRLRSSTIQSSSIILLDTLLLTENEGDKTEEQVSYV

## c1ccc(CN2CCC(Nc3ncnc4sc5c(c34)CCCC5)CC2)cc1 [Example B1, N-(1-benzylpiperidin-4-yl)5,6,7,8-tetrahydro-benzo[4,5]thieno[2,3-d]pyrimidin-4-amine]
[1]
  IC50: 110 nM
[2]; [8]
  half-life: 60 min
[3]
  half-life: < 15 min

## Fc1cccc(CN2CCC(Nc3ncnc4sc5c(c34)CCCC5)CC2)c1 [Example B3, N-(1-(3-fluorobenzyl)piperidin-4-yl)5,6,7,8-tetrahydro-bcnzo[4,5]thieno[2,3-d]pyrimidin-4-amine]
[4]; NA: Not Active
  Ki: 240 nM
[1]
  IC50: 100 nM
[5]
  IC50: 22.5 nM
[6]
  hERG (% Inhibition at 1 uM): 58.5%
[3]
  half-life: 4.3 min

## Fc1ccccc1CN1CCC(Nc2ncnc3sc4c(c23)CCCC4)CC1 [Example B4, N-(1-(2-fluorobenzyl)piperidin-4-yl)5,6,7,8-tetrahydro-benzo[4,5]thieno[2,3-d]pyrimidin-4-amine]
[6]
  hERG (% Inhibition at 1 uM): hERG (% Inhibition at 1 uM): 58.5

## CN1CCC(N(C)c2ncnc3sc4c(c23)CCCC4)CC1 [Example B5, N-methyl-N-(1-methylpiperidin-4-yl)5,6,7,8-tetrahydro-benzo[4,5] thieno[2,3-d]pyrimidin-4-amine]
[7]
  % at 10 nM (5HT2B): -2%
  % at 100 nM (5HT2B): 11%
  % at 1000 nM (5HT2B): 67%

## c1ccc(CN2CCC(Nc3ncnc4scc(-c5ccccc5)c34)CC2)cc1 [Example B6, N-(1-benzylpiperidin-4-yl)-5-phenylthieno [2,3-d]pyrimidin-4-amine]
[7]
  % at 10 nM (5HT2B): 38%
  % at 100 nM (5HT2B): 91%
  % at 1000 nM (5HT2B): 101%
[3]
  half-life: < 15 min

## Oc1cc(C(F)(F)F)cnc1N1CCC(Nc2ncnc3scc(-c4ccccc4)c23)CC1 [Example B7, 2-(4-(5-phenylthieno [2,3-d]pyrimidin-4-ylamino)piperidin-1-yl)-5-(trifluoromethyl) pyridin-3-ol]
[7]
  % at 10 nM (5HT2B): 3%
  % at 100 nM (5HT2B): 4%
  % at 1000 nM (5HT2B): 30%

## c1ccc(CN2CCC(Nc3ncnc4sccc34)CC2)cc1 [Example B8, N-(1-benzylpiperidin-4-yl)thieno [2,3-d]pyrimidin-4-amine]
[7]
  % at 10 nM (5HT2B): 13%
  % at 100 nM (5HT2B): 62%
  % at 1000 nM (5HT2B): 96%

## Cc1csc2ncnc(NC3CCN(Cc4ccccc4)CC3)c12 [Example B9, N-(1-benzylpiperidin-4-yl)-5-methylthieno [2,3-d]pyrimidin-4-amine]
[7]
  % at 10 nM (5HT2B): 15%
  % at 100 nM (5HT2B): 62%
  % at 1000 nM (5HT2B): 97%

## N#Cc1cccc(CN2CCC(Nc3ncnc4sc5c(c34)CCCC5)CC2)c1 [Example B11, 3-((4-(5,6,7,8-tetrahydro-benzo[4,5]thieno[2,3-d]pyrimidin-4-ylamino)piperidin-1-yl)methyl)benzonitrile, dihydrochloride]
[7]; 1 nM
  % at 1 nM (5HT2B): 35%
[7]
  % at 10 nM (5HT2B): 82%
  % at 100 nM (5HT2B): 101%
[6]
  hERG (% Inhibition at 1 uM): hERG (% Inhibition at 1 uM): 44.9
[3]
  half-life: < 15 min

## CC(c1cccc(F)c1)N1CCC(Nc2ncnc3sccc23)CC1 (stereo not drawn) [Example B12, N-(1-(1-(3-fluorophenyl)ethyl)piperidin-4-yl) thieno[2,3-d]pyrimidin-4-amine, dihydrochloride]
[4]; NA: Not Active
  Ki: 250 nM
[6]
  hERG (% Inhibition at 1 uM): hERG (% Inhibition at 1 uM): 58.5
[3]
  half-life: 11 min

## CC(C)Cc1cc2c(NC3CCN(C(C)c4cccc(F)c4)CC3)ncnc2s1 (stereo not drawn) [Example B14, N-(1-(1-(3-fluorophenyl)ethyl)piperidin-4-yl)-6-isobutylthieno[2,3-d] pyrimidin-4-amine, dihydrochloride]
[1]
  IC50: 5300 nM
[6]
  hERG (% Inhibition at 1 uM): 76.1%
[2]; iv, read-out: Rat pK: T1/2 (iv)
  half-life: 30 min
[2]; po
  bioavailability: 4%
[2]; [8]
  half-life: 30 min
[3]
  half-life: < 15 min

## CC(c1cc(F)cc(F)c1)N1CCC(Nc2ncnc3sc4c(c23)CCCC4)CC1 (stereo not drawn) [Example B17, N-(1-(1-(3,5-difluorophenyl)ethyl)piperidin-4-yl)5,6,7,8-tetrahydro-benzo [4,5]thieno[2,3-d] pyrimidin-4-amine, dihydrochloride]
[1]
  IC50: 1300 nM
[3]
  half-life: < 15 min

## CC(C)Cc1cc2c(NC3CCN(C(C)c4c(F)cc(F)cc4F)CC3)ncnc2s1 (stereo not drawn) [Example B19, N-(1-(1-(2,4,6-trifluorophenyl)ethyl)piperidin-4-yl)-6-isobutylthieno[2,3-d]pyrimidin-4-amine, dihydrochloride]
[6]
  hERG (% Inhibition at 1 uM): hERG (% Inhibition at 1 uM): 50.2
[3]
  half-life: < 15 min

## CC(C)Cc1cc2c(NC3CCN(C(C)c4c(F)cccc4F)CC3)ncnc2s1 (stereo not drawn) [Example B20, N-(1-(1-(2,6-difluorophenyl)ethyl)piperidin-4-yl)-6-isobutylthieno[2,3-d] pyrimidin-4-amine, dihydrochloride]
[6]
  hERG (% Inhibition at 1 uM): hERG (% Inhibition at 1 uM): 73.4
[3]
  half-life: < 15 min

## Fc1cc(F)cc(CN2CCC(Nc3ncnc4sccc34)CC2)c1 [Example B30, N-(1-(3,5-difluorobenzyl)piperidin-4-yl) thieno[2,3-d]pyrimidin-4-amine, dihydrochloride]
[1]
  IC50: 1600 nM
[6]
  hERG (% Inhibition at 1 uM): 62%
[2]; po
  bioavailability: 17%
[2]; [8]
  half-life: 48 min
[3]
  half-life: 19 min

## CC(C)c1cc2c(NC3CCN(Cc4cc(F)cc(F)c4)CC3)ncnc2s1 [Example B31, N-(1-(3,5-difluorobenzyl)piperidin-4-yl)-6-isopropylthieno [2,3-d] pyrimidin-4-amine, dihydrochloride]
[4]; NA: Not Active
  Ki: 230 nM
[1]
  IC50: 830 nM
[2]; po
  bioavailability: 10%
[2]; [8]
  half-life: 30 min
[3]
  half-life: 8 min

## CC(C)c1cc2c(NC3CCN(Cc4cc(F)cc(F)c4)CC3)ncnc2s1 [Example B32, N-(1-(3,5-difluorobenzyl)piperidin-4-yl)-6-isopropylthieno [2,3-d] pyrimidin-4-amine, monomaleate]
[1]
  IC50: 450 nM
[5]
  IC50: 1.53 nM

## Fc1cc(F)cc(CN2CCC(Nc3ncnc4sc(Cl)cc34)CC2)c1 [Example B33, N-(1-(3,5-difluorobenzyl)piperidin-4-yl)-6-chlorothieno[2,3-d]pyrimidin-4-amine, dihydrochloride]
[6]
  hERG (% Inhibition at 1 uM): hERG (% Inhibition at 1 uM): 22.8
[3]
  half-life: 13 min

## Cc1sc2ncnc(NC3CCN(CC4CCCCC4)CC3)c2c1C [Example B35, N-(1-(cyclohexylmethyl)piperidin-4-yl)-5,6-dimethylthieno[2,3-d]pyrimidin-4-amine, dihydrochloride]
[6]
  hERG (% Inhibition at 1 uM): hERG (% Inhibition at 1 uM): 91.7
[3]
  half-life: < 15 min

## Cc1sc2ncnc(NC3CCN(Cc4ccccc4C#N)CC3)c2c1C [Example B36, 2-((4-(5,6-dimethylthieno[2,3-d]pyrimidin-4-ylamino)piperidin-1-yl)methyl)benzonitrile, dihydrochloride]
[6]
  hERG (% Inhibition at 1 uM): hERG (% Inhibition at 1 uM): 21.7

## Cc1c(Cl)sc2ncnc(NC3CCN(Cc4ccccc4C#N)CC3)c12 [Example B39, 2-((4-(6-chloro-5-methylthieno[2,3-d]pyrimidin-4-ylamino)piperidin-1-yl)methyl) benzonitrile, dihydrochloride]
[3]
  half-life: < 15 min

## COc1ccccc1CN1CCC(Nc2ncnc3sc(Cl)c(C)c23)CC1 [Example B40, N-(1-(2-methoxybenzyl)piperidin-4-yl)-6-chloro-5-methylthieno[2,3-d] pyrimidin-4-amine, dihydrochloride]
[3]
  half-life: < 15 min

## Fc1cccc(CN2CCC(Nc3ncnc4sc(Cl)cc34)CC2)c1 [Example B41, N-(1-(3-fluorobenzyl)piperidin-4-yl)-6-chlorothieno[2,3-d]pyrimidin-4-amine, dihydrochloride]
[3]
  half-life: 10 min

## NC(=O)c1cccc(CN2CCC(Nc3ncnc4sc(Cl)cc34)CC2)c1 [Example B45, 3-((4-(6-chlorothieno [2,3-d]pyrimidin-4-ylamino)piperidin-1-yl)methyl) benzamide, monomaleate]
[3]
  half-life: 86 min

## Fc1ccccc1CN1CCC(Nc2ncnc3sc(Cl)cc23)CC1 [Example B46, N-(1-(2-fluorobenzyl)piperidin-4-yl)-6-chlorothieno[2,3-d]pyrimidin-4-amine, monomaleate]
[6]
  hERG (% Inhibition at 1 uM): hERG (% Inhibition at 1 uM): 39.5
[3]
  half-life: < 15 min

## Clc1cc2c(NC3CCN(Cc4cccnc4)CC3)ncnc2s1 [Example B47, 6-chloro-N-(1-((pyridin-3-yl)methyl)piperidin-4-yl)thieno [2,3-d]pyrimidin-4-amine, monomaleate]
[4]
  Ki: > 10000 nM
[3]
  half-life: 12 min

## Clc1cc2c(NC3CCN(Cc4cncnc4)CC3)ncnc2s1 [Example B49, 6-chloro-N-(1-((pyrimidin-5-yl)methyl)piperidin-4-yl)thieno[2,3-d] pyrimidin-4-amine, monomaleate]
[3]
  half-life: 60 min

## N#Cc1ccc(F)c(CN2CCC(Nc3ncnc4sc(Cl)cc34)CC2)c1 [Example B51, 3-((4-(6-chlorothieno [2,3-d]pyrimidin-4-ylamino)piperidin-1-yl)methyl)-4-fluorobenzonitrile, monomaleate]
[3]
  half-life: 10 min

## Clc1cccc(CN2CCC(Nc3ncnc4sc(Cl)cc34)CC2)c1 [Example B52, N-(1-(3-chlorobenzyl)piperidin-4-yl)-6-chlorothieno[2,3-d]pyrimidin-4-amine, monomaleate]
[3]
  half-life: 11 min

## CC(C)c1c(Cl)sc2ncnc(NC3CCN(Cc4cccc(F)c4)CC3)c12 [Example B53, N-(1-(3-fluorobenzyl)piperidin-4-yl)-6-chloro-5-isopropylthieno[2,3-d]pyrimidin-4-amine, monomaleate]
[3]
  half-life: 8 min

## FC(F)(F)c1cccc(CN2CCC(Nc3ncnc4sc(Cl)cc34)CC2)c1 [Example B54, N-(1-(3-(trifluoromethyl)benzyl)piperidin-4-yl)-6-chlorothieno[2,3-d]pyrimidin-4-amine, monomaleate]
[3]
  half-life: 16 min
